Measurements reported in US6291673A, “Folic acid derivatives” (Purdue Research Foundation, priority 2000, dated 2001).
Several values for one entry are separate records, joined by “and”; a condition that tells them apart may be missing. Equal entries are not always repeated.

Experiments:
carboxypeptidase G [1] = test: Carboxypeptidase G enantiospecific hydrolysis of folic acid derivatives (HPLC of released pteroic acid); format: biochemical; settings: Tris buffer with ZnCl2, 37° C., 2 h, pyrofolates and monoesters first hydrolysed in 0.25 M NaOH, error about ±2-3%
Protocol: Since it had been previously observed that guanidine bases are capable of racemizing acylated glutamates (under more forcing conditions than were employed in the reactions listed in Table 2), the optical purity of the folic acid 1 (=25a) and several of its derivatives which had been produced was evaluated. […] In order to assay the pyrofolates 8 and 9 as well as the α- and γ-monoesters of folic acid L-33a and L-33c, an initial mild basic hydrolysis was required prior to the enzyme assay. […] Control reactions on synthetic D-1=25a and DL-1=25a (Table 3, Entries 3,4) serve to confirm the error limits of the enzymatic method at about ±2-3%.
Determination of optical purity of folate derivatives listed in Table 3 using enzymatic hydrolysis with carboxypeptidase G:30:
The folic acid derivative (~2.5 mg) was dissolved in 1 mL Tris buffer containing 20 μg ZnCl2 and 50 microunit enzyme (Sigma Chemical Company) was added. The solution was incubated at 37° C. for 2 h. A 20 μL sample was tested by HPLC on a […] MICROSORB C-18 reverse phase column (Eluent A: 5 mM phosphate buffer; Eluent B: acetonitrile; flow rate: 1 mL/min; gradient: 0-5 min, 5% B, 10-15, 25% B). Folic acid was eluted at 4.1 min, pteroic acid at 10.6 min, methotrexate at 10.8 min, and amino-N10-methyl pteroic acid at 11.9 min. Peak area was used as the standard for analysis.
For folate derivatives, ~5 mg was first dissolved in 1 mL 0.25 M NaOH and incubated at room temperature for 1 h. Then the solution was acidified by 1 M HCl until precipitation. After centrifugation, washing, and drying, the ~2.5 mg yellow pellet was dissolved in 1 mL Tris buffer and reacted with enzyme under the conditions described above.

[2] = target: T1, cell surface folate receptors (Homo sapiens, UniProt P15328); test: Affinities of FITC-EDA-folate for cell surface folate receptors on KB cells; format: binding
T1 construct: KB cells overexpressing the receptor; endogenous in cells; host or cells: KB cells
Protocol: To determine the affinities of EDA-folate for cell surface folate receptors, the α- and γ-isomers were labeled with the fluorophore FITC and incubated with KB cells overexpressing the receptor. […] The low level of non-specific uptake observed with both isomers was probably due to the hydrophobicity of the FITC conjugates.

carboxypeptidase G [3] = settings: footnote c of Table 3; cited from earlier work
[4] = Storage stability of pteroylazide 27; format: physicochemical
Source text: The known impurities include ~4% pteroic acid 10, ~2% of the aniline (PteNH2) apparently resulting from Curtius rearrangement of 27, ~2% of pteroylamide (PteCO--NH2 11); and <1% of folic acid 1. […] Unlike some acyl azides, pteroylazide 27 is quite stable; samples of the lemon-yellow solid may be stored in the dark in a freezer for at least 12 months without appreciable decomposition.

T1 sequence (P15328 25-257): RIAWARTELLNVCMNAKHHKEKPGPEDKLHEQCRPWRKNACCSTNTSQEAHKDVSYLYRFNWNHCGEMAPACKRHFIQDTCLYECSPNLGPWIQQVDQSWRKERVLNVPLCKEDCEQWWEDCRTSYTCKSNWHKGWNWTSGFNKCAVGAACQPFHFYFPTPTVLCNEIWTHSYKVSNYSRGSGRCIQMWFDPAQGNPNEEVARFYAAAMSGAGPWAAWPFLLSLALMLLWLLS

Row | Compound | % Hydrolysis (carboxypeptidase G [1]) | also measured
1 | COC(=O)CC[C@H](NC(=O)c1ccc(NCc2cnc3nc(N)[nH]c(=O)c3n2)cc1)C(=O)O [Compound L-33a, Tetramethylguanidinium (L)-methyl folate (γ)] | 96.8% | –
2 | Nc1nc2ncc(CNc3ccc(C(=O)N4C(=O)CCC4C(=O)O)cc3)nc2c(=O)[nH]1 (centres unmarked) [Compound 9, Pyrofolic acid] | 51.7% | –
3 | Nc1nc(O)c2nc(CNc3ccc(C(=O)N[C@@H](CCC(=O)NCCNC(=S)Nc4ccc5c(c4)C(=O)OC54c5ccc(O)cc5Oc5cc(O)ccc54)C(=O)O)cc3)cnc2n1 [FITC-EDA-folate(γ)] | – | Kd ([2]; KB cells overexpressing the receptor, read-out: concentration required to reach 50% maximal binding): 1.6 nM
4 | Nc1nc2ncc(CNc3ccc(C(=O)N[C@@H](CCC(=O)O)C(=O)O)cc3)nc2c(=O)[nH]1 [Compound L-1, Folic acid] | 96.7% | competition with the receptor binding of FITC-EDA-folate(γ) ([2]; excess folic acid in the incubation medium, KB cells): effectively competed; % Hydrolysis (carboxypeptidase G [1]; listed as L-25a): 98.4% and 98.6%
5 | CN(Cc1cnc2nc(N)nc(N)c2n1)c1ccc(C(=O)N[C@H](CCC(=O)O)C(=O)O)cc1 [Compound D-34d] | – | hydrolysis by carboxypeptidase G (carboxypeptidase G [3]): not to be hydrolyzed
6 | [N-]=[N+]=NC(=O)c1ccc(NCc2cnc3nc(N)[nH]c(=O)c3n2)cc1 [Compound 27, Pteroylazide] | – | shelf life ([4]; room temperature, protected from light): at least a month; HPLC profile after exposure to light ([4]; samples exposed to light (darken appreciably)): not substantially degraded; storage time without appreciable decomposition ([4]; solid, in the dark in a freezer): at least 12 months
7 | CC(C)=CCOC(=O)[C@H](CCC(=O)O)NC(=O)c1ccc(NCc2cnc3nc(N)[nH]c(=O)c3n2)cc1 [Compound L-33c] | 85.9% and 96.7% | –
8 | CN(Cc1cnc2nc(N)nc(N)c2n1)c1ccc(C(=O)N[C@@H](CCC(=O)O)C(=O)O)cc1 [Compound L-34d, L-methotrexate, reference compound] | 96.1% and 99.2% | –
9 | Nc1nc2ncc(CN(C(=O)C(F)(F)F)c3ccc(C(=O)N4C(=O)CCC4C(=O)O)cc3)nc2c(=O)[nH]1 (centres unmarked) [Compound 8, N10-Trifluoroacetylpyrofolic acid] | 49.5% | –
10 | COC(=O)CCC(NC(=O)c1ccc(NCc2cnc3nc(N)[nH]c(=O)c3n2)cc1)C(=O)O (racemic) [DL-33a, (DL)-methyl folate (γ)] | 54.4% | –
11 | Nc1nc2ncc(CNc3ccc(C(=O)N[C@@H](CCC(=O)O)C(=O)NCCNC(=S)Nc4ccc5c(c4)C(=O)OC54c5ccc(O)cc5Oc5cc(O)ccc54)cc3)nc2c(=O)[nH]1 [α-isomer of FITC-EDA-folate] | – | affinity for the cell surface receptors ([2]; KB cells overexpressing the receptor): virtually no affinity
12 | Nc1nc2ncc(CNc3ccc(C(=O)N[C@H](CCC(=O)O)C(=O)O)cc3)nc2c(=O)[nH]1 [Compound D-25a] | 3.0% | –
13 | Nc1nc2ncc(CNc3ccc(C(=O)NC(CCC(=O)O)C(=O)O)cc3)nc2c(=O)[nH]1 (racemic) [D, L-25a] | 52.3% | –
